{"source": "patent US20060100155A1", "about": "“Method for the therapeutic management of endometriosis” (priority 1999, published 2006)", "test_system": "patients with confirmed endometriosis", "test": "Weekly s.c. administration of 3 mg LHRH antagonist for 8 weeks to patients with confirmed endometriosis", "type": "in vivo, human", "conditions": "for hot flushes or other (estradiol) withdrawal symptoms / proliferation of the endometrium (histological biopsies): 3 mg weekly for 8 weeks; for proliferation of the endometrium (histological biopsies): at the end of treatment", "procedure": "The weekly administration of an adequate dose of an LHRH antagonist, e.g. 3 mg Cetrotide® s.c./per week over a period of eight weeks leads to a controlled suppression of estrogen secretion so that serum concentrations between about 35 pg/ml and about 80 pg/ml, preferably between about 45-75 pg/ml, more preferably between about 50-75 pg/ml are obtained. […] Also the development of osteoporosis can be avoided.", "note": "Non-standard residues stand in square brackets, D forms with d. Residues, ends and D or L forms follow the SMILES beside them. dPhe(4-Cl) = N[C@H](Cc1ccc(Cl)cc1)C(=O)O; d2Nal = N[C@H](Cc1ccc2ccccc2c1)C(=O)O; dCit = NC(=O)NCCC[C@@H](N)C(=O)O; d3Pal = N[C@H](Cc1cccnc1)C(=O)O"}
{"smiles": "CC(=O)N[C@H](Cc1ccc2ccccc2c1)C(=O)N[C@H](Cc1ccc(Cl)cc1)C(=O)N[C@H](Cc1cccnc1)C(=O)N[C@@H](CO)C(=O)N[C@@H](Cc1ccc(O)cc1)C(=O)N[C@H](CCCNC(N)=O)C(=O)N[C@@H](CC(C)C)C(=O)N[C@@H](CCCNC(=N)N)C(=O)N1CCC[C@H]1C(=O)N[C@H](C)C(N)=O", "note": "[Cetrorelix acetate] (Ac-[d2Nal][dPhe(4-Cl)][d3Pal]SY[dCit]LRP[dA]-NH2)", "values": [{"measurement": "ovarian cyst formation", "setting": "3 mg s.c. weekly for 8 weeks", "result": "No ovarian cyst formation occurred"}, {"measurement": "progress of the disease confirmed by 2nd look laparascopy", "setting": "3 mg s.c. weekly for 8 weeks", "result": "without any progress of the disease"}, {"measurement": "hot flushes or other (estradiol) withdrawal symptoms", "result": "avoiding any hot flushes or other withdrawal symptoms"}, {"measurement": "proliferation of the endometrium (histological biopsies)", "result": "no proliferation of the endometrium"}, {"measurement": "proliferation of the endometrium (histological biopsies)", "setting": "listed as Cetrorelix", "result": "without proliferation of the endometrium"}, {"measurement": "hot flushes or other (estradiol) withdrawal symptoms", "setting": "listed as Cetrorelix", "result": "without any signs of estradiol withdrawal symptoms"}]}
